Read-outs that look alike come from different tables or passages of the source.
What was measured:
OAT1 = biological target: T1, OAT1 (Homo sapiens, UniProt Q4U2R8); test: Transporter inhibition, uptake of [3H]-p-aminohippurate in HEK293 cells; type: in vitro ADME
T1 construct: host or cells: HEK293
T1 sequence (Q4U2R8 1-563): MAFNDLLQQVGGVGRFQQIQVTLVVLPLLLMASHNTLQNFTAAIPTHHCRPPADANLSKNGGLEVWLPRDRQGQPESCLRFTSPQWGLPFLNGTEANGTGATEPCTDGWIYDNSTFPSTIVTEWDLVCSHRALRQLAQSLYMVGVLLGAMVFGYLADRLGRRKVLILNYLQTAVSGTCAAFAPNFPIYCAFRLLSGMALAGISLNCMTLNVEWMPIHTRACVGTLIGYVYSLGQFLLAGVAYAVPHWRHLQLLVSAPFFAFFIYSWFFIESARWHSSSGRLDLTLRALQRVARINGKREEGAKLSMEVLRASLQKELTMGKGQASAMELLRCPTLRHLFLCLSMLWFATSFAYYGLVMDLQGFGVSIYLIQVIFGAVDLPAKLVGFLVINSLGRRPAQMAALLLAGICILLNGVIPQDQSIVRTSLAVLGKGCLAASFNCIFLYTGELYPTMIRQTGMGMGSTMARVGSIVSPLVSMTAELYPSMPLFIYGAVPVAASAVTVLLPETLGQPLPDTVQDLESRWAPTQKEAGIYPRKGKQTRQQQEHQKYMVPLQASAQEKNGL
Procedure: (§1) The test compound (FFA or nFFA) or the positive control substrate ([…], respectively) was added to the donor chamber. […] Cells were then washed, lysed with scintillation cocktail, and analyzed for the probe substrate with a MicroBeta scintillation counter (PerkinElmer, Hopkinton, MA). Transcellular transporter assay conditions are described in Supplemental Table 1. Calculation of IC50 values was based on bidirectional permeability of probe substrate with and without the inhibitor in MDCKII cells expressing BCRP and in Caco‐2 cells expressing P‐gp, and transporter‐dependent uptake of probe substrate in HEK293 cells expressing all other transporters (Supplemental Table 1).
The transporter-specific uptake of the probe substrate in cells was determined by subtracting the accumulation in the control cells from the accumulation in the transporter-expressing cells.

BCRP = biological target: T2, BCRP (Homo sapiens, UniProt Q9UNQ0); test: Transporter inhibition, bidirectional permeability of prazosin in MDCKII-BCRP cells; type: in vitro ADME
T2 construct: host or cells: MDCKII
T2 sequence (Q9UNQ0 1-655): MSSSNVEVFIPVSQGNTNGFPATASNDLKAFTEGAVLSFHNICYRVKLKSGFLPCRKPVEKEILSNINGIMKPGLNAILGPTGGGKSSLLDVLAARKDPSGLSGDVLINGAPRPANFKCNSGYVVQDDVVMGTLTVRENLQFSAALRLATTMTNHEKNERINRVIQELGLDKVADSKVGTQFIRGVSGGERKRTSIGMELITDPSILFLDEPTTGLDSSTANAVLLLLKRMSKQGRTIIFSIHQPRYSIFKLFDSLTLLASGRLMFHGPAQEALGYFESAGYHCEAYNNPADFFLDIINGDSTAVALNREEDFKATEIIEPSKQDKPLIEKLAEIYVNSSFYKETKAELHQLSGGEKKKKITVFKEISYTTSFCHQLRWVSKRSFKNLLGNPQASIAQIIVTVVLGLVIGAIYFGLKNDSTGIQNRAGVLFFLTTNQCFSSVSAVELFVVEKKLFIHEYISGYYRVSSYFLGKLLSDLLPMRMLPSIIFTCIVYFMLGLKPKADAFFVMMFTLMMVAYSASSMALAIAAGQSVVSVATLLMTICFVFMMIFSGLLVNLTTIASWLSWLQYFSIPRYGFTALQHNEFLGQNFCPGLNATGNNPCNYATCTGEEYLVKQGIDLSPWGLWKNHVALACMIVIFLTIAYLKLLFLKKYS
Procedure: as §1
The net flux for human epithelial colorectal adenocarcinoma cells (Caco-2; P-gp) and MDCKII-BCRP inhibition determination was calculated according to the equation: […]

[1] = Pharmacokinetic input parameters of the mechanistic static model (population pharmacokinetics); conditions: for Portal inlet [I]h: calculated as (Imax + (Fa × Fg × ka × molar dose) / Qh) / Rb; for Cmax, unbound: calculated as Cmax, total (ng/mL)/MW * fu
CYP1A2 = biological target: T3, CYP1A2 (Homo sapiens, UniProt P05177); test: Direct CYP450 inhibition in human liver microsomes (phenacetin O-dealkylation)
T3 sequence (P05177 1-516): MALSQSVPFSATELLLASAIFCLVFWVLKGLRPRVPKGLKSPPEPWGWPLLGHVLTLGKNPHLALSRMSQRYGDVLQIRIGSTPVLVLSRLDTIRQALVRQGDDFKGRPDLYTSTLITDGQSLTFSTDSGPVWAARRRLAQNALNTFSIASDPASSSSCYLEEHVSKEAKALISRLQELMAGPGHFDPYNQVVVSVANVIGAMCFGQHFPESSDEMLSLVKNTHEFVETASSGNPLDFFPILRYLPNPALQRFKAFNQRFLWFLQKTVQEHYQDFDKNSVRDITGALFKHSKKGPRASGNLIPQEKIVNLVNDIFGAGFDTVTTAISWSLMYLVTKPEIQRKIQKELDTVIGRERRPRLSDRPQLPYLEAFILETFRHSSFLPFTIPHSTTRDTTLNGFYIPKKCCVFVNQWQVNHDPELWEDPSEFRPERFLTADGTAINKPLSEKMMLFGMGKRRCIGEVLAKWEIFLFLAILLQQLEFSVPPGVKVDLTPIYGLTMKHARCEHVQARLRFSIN
Excerpt: A mixed‐gender pool of 200 individual human liver microsomal samples was used.
(§2) This LIMS utilizes the Levenberg-Marquardt algorithm to perform nonlinear regression fitting of the data to the following 4-parameter sigmoidal-logistic IC50 equation:
(§3) As percent of control values are utilized, the Min is set to 0 and the Max is set to 100 (or other values, as appropriate). […] Therefore, when an IC50 value falls outside the concentration range studied, the IC50 values are reported to be greater than the highest concentrations of test article evaluated.

CYP2D6 = CYP2D6 (Homo sapiens, UniProt P10635); test: Direct CYP450 inhibition in human liver microsomes (dextromethorphan O-demethylation); conditions: for Inhibition (%): direct inhibition, FFA up to 60 µM, nFFA up to 100 µM; for Ah (guidance term): mechanistic static model, Supplemental Table 2; for Basic model: R1: R1 = 1 + (Imax,u/Ki,u)
CYP2D6, sequence (P10635 whole entry): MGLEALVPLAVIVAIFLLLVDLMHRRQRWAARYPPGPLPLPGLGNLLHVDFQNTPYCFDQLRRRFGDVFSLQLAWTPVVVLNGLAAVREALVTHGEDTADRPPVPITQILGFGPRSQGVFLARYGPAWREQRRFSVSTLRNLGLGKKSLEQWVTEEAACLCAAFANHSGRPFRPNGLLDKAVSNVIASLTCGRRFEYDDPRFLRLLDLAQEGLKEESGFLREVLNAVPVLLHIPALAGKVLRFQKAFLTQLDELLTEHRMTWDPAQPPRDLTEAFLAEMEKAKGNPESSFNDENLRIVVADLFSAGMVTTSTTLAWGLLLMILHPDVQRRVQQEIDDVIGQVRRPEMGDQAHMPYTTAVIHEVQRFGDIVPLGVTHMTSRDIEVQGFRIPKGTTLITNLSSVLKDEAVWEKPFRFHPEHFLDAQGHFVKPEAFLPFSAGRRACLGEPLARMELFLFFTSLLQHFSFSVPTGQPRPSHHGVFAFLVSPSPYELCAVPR
Procedure: Microsomes from non‐transplantable human livers were prepared and characterized as outlined previously.[25], [26] A mixed‐gender pool of 200 individual human liver microsomal samples was used. Substrate concentrations and incubation conditions for determination of the kinetic constant (S50 or Km) used to select marker substrate concentrations were previously determined.[24]
Summary data are expressed as percent of control and mean ± standard deviation (SD) or standard error of the mean (SEM), as appropriate. Individual values from inhibition studies were processed with the laboratory information management system (LIMS) Galileo v3.3 (Thermo Fisher Scientific), which was used to calculate IC50 values from a four‐parameter logistic regression applied to percent inhibition versus concentration values. […] Based on FDA guidance for metabolism‐ and transporter‐mediated DDI studies,[15] basic kinetic models for transporter inhibition, CYP450 inhibition, and CYP450 induction were employed to calculate R, R1, and R3 values, respectively, and were compared to the respective predetermined threshold values listed in the guidance document.[15] […] Plasma protein binding data were used to estimate input parameters for fraction unbound to plasma proteins in the mechanistic static model (Supplemental Table 2). The fraction absorbed was assumed to be 100%, yielding the highest possible portal concentrations. […] Assays were performed in duplicate or triplicate according to previously published reports. Statistical analysis for replicates was not possible with n = 2 sample sizes.
as §2, §3

Compound	IC50 (OAT1; HEK293, probe [3H]-p-aminohippurate 1 μM, read-out: IC50) [µM]	IC50 (BCRP; MDCKII, probe prazosin 1 µM, read-out: IC50) [µM]	Portal inlet [I]h [1] [µM]	Cmax, unbound [1] [nM]	IC50 (CYP1A2; direct inhibition, human liver microsomes, substrate phenacetin) [µM]	Basic model: Potential for clinical inhibition (CYP1A2; substrate phenacetin)	Static mechanistic model: Potential for clinical inhibition (CYP1A2; substrate phenacetin)	IC50 (CYP2D6; direct inhibition (no preincubation), human liver microsomes, substrate dextromethorphan) [µM]	Inhibition (%) (CYP2D6; substrate dextromethorphan)	Ah (guidance term) (CYP2D6)	Ki (CYP2D6; read-out: Ki, u, IC50 divided by 2, assumes [S] = Km, adjusted for estimated unbound fraction in microsomes) [µM]	Basic model: Potential for clinical inhibition (CYP2D6; substrate dextromethorphan)	Static mechanistic model: Potential for clinical inhibition (CYP2D6; substrate dextromethorphan)	Basic model: R1 (CYP2D6; substrate dextromethorphan)	IC50 (OAT1) [µM]	IC50 (BCRP) [µM]	IC50 (CYP1A2) [µM]	IC50 (CYP2D6) [µM]	Ki (CYP2D6) [µM]
CC(N)Cc1cccc(C(F)(F)F)c1.Cl (stereo not shown) [nFFA, [1‐(3‐trifluoromethyl)phenyl]propan‐2‐amine hydrochloride]	> 50	> 50	0.094	94	> 100	No (Potential to inhibit if R1 ≥ 1.02)	No (Potential to inhibit if AUCR ≥ 1.25)	16 ± 1	82	0.988	7.86	No (Potential to inhibit if R1 ≥ 1.02)	No (Potential to inhibit if AUCR ≥ 1.25)	1.01	–	–	–	–	–
CCNC(C)Cc1cccc(C(F)(F)F)c1 (racemic) [FFA, (RS)‐ethyl(α‐methyl‐3‐trifluoromethylphenethyl)amine, reference compound]	–	–	0.362	162	–	No (Potential to inhibit if R1 ≥ 1.02)	No (Potential to inhibit if AUCR ≥ 1.25)	–	90	0.867	–	Yes (Potential to inhibit if R1 ≥ 1.02)	No (Potential to inhibit if AUCR ≥ 1.25)	1.07	> 30	> 100	> 60	4.7 ± 0.2	2.17
